# From ChEMBL document CHEMBL4421718, “Quinoxaline derivatives as gpr6 modulators” (2015)
# How the values were obtained:
# [1] = biological target: G-protein coupled receptor 6 (Homo sapiens, UniProt P46095); assay: Modulation activity at GPR6 receptor (unknown origin) expressed in CHO-K1 cells assessed as inhibition of constitutive cAMP activity incubated for 45 mins by Perkin Elmer Lance HTRF Ultrac-AMP assay; type: functional, cell-based
# Mus musculus [2] = assay: Reversal of haloperidol-induced catalepsy in C57BL6 mouse model of Parkinson's disease assessed as reduction in catalepsy intensity index at 30 mg/kg, ip dosed along with haloperidol and measured after 30 mins relative to untreated control; type: functional; set-up: scale not given: the % may be the effect or the level left
# Mus musculus [3] = assay: Reversal of haloperidol-induced catalepsy in C57BL6 mouse model of Parkinson's disease assessed as reduction in catalepsy intensity index at 10 mg/kg, ip dosed along with haloperidol and measured after 30 mins relative to untreated control; type: functional; set-up: scale not given: the % may be the effect or the level left
# Mus musculus [4] = assay: Reversal of haloperidol-induced catalepsy in C57BL6 mouse model of Parkinson's disease assessed as reduction in catalepsy intensity index at 30 mg/kg, ip dosed along with haloperidol and measured after 120 mins relative to untreated control; type: functional; set-up: scale not given: the % may be the effect or the level left
# Mus musculus [5] = assay: Reversal of haloperidol-induced catalepsy in C57BL6 mouse model of Parkinson's disease assessed as reduction in catalepsy intensity index at 10 mg/kg, ip dosed along with haloperidol and measured after 120 mins relative to untreated control; type: functional; set-up: scale not given: the % may be the effect or the level left
# Rattus norvegicus = assay: Reversal of haloperidol-induced catalepsy in Sprague-Dawley rat model of Parkinson's disease assessed as reduction in catalepsy intensity index at 10 mg/kg, sc dosed along with haloperidol and measured after 30 mins relative to untreated control; type: functional; set-up: scale not given: the % may be the effect or the level left
# Mus musculus [6] = assay: Reversal of haloperidol-induced catalepsy in C57BL6 mouse model of Parkinson's disease assessed as reduction in catalepsy intensity index at 10 mg/kg, sc dosed along with haloperidol and measured after 120 mins relative to untreated control; type: functional; set-up: scale not given: the % may be the effect or the level left
# Sequence of G-protein coupled receptor 6 (P46095 whole entry): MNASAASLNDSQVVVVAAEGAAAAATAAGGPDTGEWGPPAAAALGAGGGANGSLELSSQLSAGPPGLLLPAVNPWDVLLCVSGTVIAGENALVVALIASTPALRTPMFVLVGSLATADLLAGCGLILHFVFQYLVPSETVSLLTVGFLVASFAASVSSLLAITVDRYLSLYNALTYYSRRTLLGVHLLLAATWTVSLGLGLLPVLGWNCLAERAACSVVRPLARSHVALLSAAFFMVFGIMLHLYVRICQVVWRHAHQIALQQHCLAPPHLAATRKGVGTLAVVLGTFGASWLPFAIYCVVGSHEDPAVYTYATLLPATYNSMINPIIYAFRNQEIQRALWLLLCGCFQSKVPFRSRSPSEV
compound,measurement,setting,value
COc1ccc(C(=O)C2CCN(c3nc4c(C#N)nccc4nc3NC3CC3)CC2)c(F)c1,IC50,[1],43 nM
Fc1ccc(CN2CCN(c3nc4cnccc4nc3NC3CC3)CC2)c(F)c1,IC50,[1],21 nM
Cc1nncc2nc(N3CCC(Oc4ccc(F)cc4F)CC3)c(NC(C)C)nc12,IC50,[1],31 nM
Cc1cccc(CN2CCN(c3nc4ncccc4nc3NC3CC3)CC2)c1,IC50,[1],840 to 24600 nM
CN1CCN(C(=O)c2cc3nc(NC4CC4)c(N4CCC(C(=O)c5cc(C#N)ccc5F)CC4)nc3cn2)CC1,IC50,[1],54 nM
COc1ccc(C(=O)C2CCN(c3nc4cnccc4nc3NC3CC3)CC2)c(F)c1,IC50,[1],21 nM
Fc1ccc(CC2CCN(c3nc4cnccc4nc3NC3CC3)CC2)c(F)c1,IC50,[1],19 nM
CC(C)Nc1nc2ccc(C#N)cc2nc1N1CCC([C@H](F)c2cc(F)ccc2F)CC1,IC50,[1],82 nM
COc1ccc(C(=O)C2CCN(c3nc4c(N5CCOCC5)nccc4nc3NC3CC3)CC2)c(F)c1,IC50,[1],717 nM
CC1CC1Nc1nc2cnncc2nc1N1CCC([C@@H](F)c2ccc(F)cc2F)CC1 (stereo partly specified),IC50,[1],145 nM
N#Cc1ccc2nc(NC3CC3)c(N3CCN(Cc4cc(Cl)ccc4Cl)CC3)nc2c1,Activity,Mus musculus [2],27.4%
same,Activity,Mus musculus [3],42%
same,Activity,Mus musculus [4],15.7%
same,Activity,Mus musculus [5],18.8%
COc1ccc(C(=O)N2CCN(c3nc4ccccc4nc3NC3CC3)CC2)cc1Cl,IC50,[1],10100 to 17700 nM
Clc1ccc(Cl)c(CN2CCN(c3nc4ccccc4nc3NC3CC3)CC2)c1.O=C(O)C(F)(F)F,Activity,Mus musculus [2],48.1%
same,Activity,Mus musculus [4],41.4%
CC(C)Nc1nc2ccc(C#N)cc2nc1N1CCN(Cc2cc(Cl)ccc2Cl)CC1,IC50,[1],310 nM
Fc1ccc(F)c(CN2CCN(c3nc4cncc(Cl)c4nc3NC3CC3)CC2)c1,IC50,[1],62 nM
Clc1cccc(Cl)c1CN1CCN(c2nc3ccccc3nc2NC2CC2)CC1.O=C(O)C(F)(F)F,Activity,Mus musculus [2],40.4%
same,Activity,Mus musculus [4],29.6%
C[C@H](CO)Nc1nc2ccccc2nc1N1CCN(Cc2cc(Cl)ccc2Cl)CC1,IC50,[1],1570 nM
CC(C)Nc1nc2ccccc2nc1N1CCC(Oc2ccc(Cl)cc2F)CC1,IC50,[1],51 nM
N#Cc1ccc2nc(NC3CC3)c(N3CCC(Cc4ccc(F)cc4F)CC3)nc2c1.O=C(O)C(F)(F)F,Activity,Rattus norvegicus,36.9%
same,Activity,Mus musculus [6],25.1%
Clc1cccc(CN2CCN(c3nc4ccccc4nc3Nc3cccnc3)CC2)c1.O=C(O)C(F)(F)F,Activity,Mus musculus [2],13.6%
same,Activity,Mus musculus [4],15.4%
Cc1nnc(C)c2nc(N3CCC(Oc4ccc(F)cc4F)CC3)c(NC(C)C)nc12,IC50,[1],60 nM
COc1ccc(OC2CCN(c3nc4cnncc4nc3NC3CC3)CC2)c(F)c1,IC50,[1],36 nM
Fc1ccc(OC2CCN(c3nc4cnccc4nc3NC3CC3)CC2)c(F)c1,IC50,[1],1100 nM
COc1ccc(OC2CCN(c3nc4c(N5CCOCC5)nccc4nc3NC3CC3)CC2)c(F)c1,IC50,[1],114 nM
